Data as given in patent US20140005070A1, “MARKERS ASSOCIATED WITH CYCLIN-DEPENDENT KINASE INHIBITORS” (Novartis AG, priority 2011, published 2014).

Key:
[1] = tested on: MYC; assay: Dog toxicology study, TaqMan mRNA in white blood cells after CDKI(7): MYC; type: in vivo
Protocol: (§1) As part of a dog toxicology study, CDKI(7) was administered to dogs. White blood cells were harvested and MEPCE, MYC and MCL1 gene expression was assessed as PD markers. mRNA levels of each of these PD markers were measured by TaqMan® at various time points after CDKI(7) treatment.
(§2) The study had three groups of three dogs each. Dogs in Group 1 (#101, #102, and #103) were treated with CDKI(7) at 0.5 mg/kg, dogs in Group 2 (#104, #105, and #106) were treated at 1 mg/kg CDKI(7) and dogs in Group 3 (#107, #108, and #109) were treated at 2 mg/kg CDKI(7). Samples were collected before treatment (0 hour), 3 hours, 7 hours and 24 hours after treatment for a total of 12 samples per group. Blood samples were received frozen in QIAGEN RNA protect® Animal Blood tubes (Cat. # 76554 QIAGEN-Valencia, Calif., USA). RNA samples were extracted using the QIAGEN RNeasy® Protect Animal Blood kit (Cat. # 73224). RNA samples were quantified using the RNA Quant-iT RNA® assay from Invitrogen (Cat. # Q32852 Invitrogen—Grand Island, N.Y., USA) and read on an Invitrogen Qubit fluorometer® (Cat. # Q32857). First strand cDNA synthesis was performed on 500 ng of RNA in a reaction volume of 20 μl using a High Capacity cDNA Reverse Transcription Kit® from Applied Biosystems (Cat. # 4368814 Applied Biosystems, Carlsbad, Calif., USA). The cDNA samples were then diluted to obtain a 10 ng cDNA input for the TaqMan® reaction. TaqMan® reactions were run in triplicates using a TaqMan® Gene Expression Master Mix from Applied Biosystems (Cat. # 4369016) on an ABI 7500® machine. The 18S rRNA level was used as an endogenous control for variations in cDNA input. The relative quantification method was used to analyze the data; this method uses one sample as a calibrator sample and express mRNA levels relative to that sample. The results were expressed as RQ values (Relative Quantification) with RQ Min and RQ Max values determining a 95% confidence interval for the real RQ value. The samples were grouped according to the dose and each group was treated as a separate experiment with one of the pre-dose samples used as a calibrator sample. The logarithm of the RQ values are plotted so that increases or decreases from the initial value can be more easily represented; on a logarithmic scale: a 10-fold increase or 10-fold decrease in RQ value are represented as +1 and −1 respectively.
The MYC transcription factor is a known oncogene and previous Examples have shown that its mRNA is short-lived and sensitive to CDK9 inhibition (see FIG. 2). The MYC mRNA levels were determined by TaqMan® using the relative quantification method. The calibrator samples are dog #101 at 0 hour timepoint for the 0.5 mg/kg dose of CDKI(7), dog #104 at 0 hour timepoint for the 1 mg/kg CDKI(7) dose and dog #107 at 0 hour timepoint for the 2 mg/kg CDKI(7) dose. The logarithm (base 10) of the RQ values is plotted with the error bars representing the 95% confidence interval.

[2] = tested on: MEPCE; assay: Western blot of MEPCE protein in NCI-H929 cells (FIG. 4); type: cell-based
Protocol: After treatment with a CDKI, cells were lysed in modified RIPA buffer containing 50 mM TRIS pH 7.4, 150 mM NaCl, 1 mM EDTA, 1% Brij-35, 0.1% deoxycholate, protease inhibitors (Roche Molecular Biochemicals, Mannheim, Germany). SDS-PAGE (4-12% gel) was used to resolve the proteins in the lysate. After electrophoresis, the proteins were electrotransferred onto a polyvinylidene fluoride microporous membrane and immunodetected using standard procedures. FIG. 4 is a Western blot of the multiple myeloma line NCI-H929, treated with CDKI(7) or DMSO and gene expression analyzed at certain time points during the treatment. […] Thus, the reduction in expression of genes in response to CDKI seen at the mRNA level by microarray is confirmed at the protein level by Western blotting.

[3] = tested on: MCL1; assay: Dog toxicology study, TaqMan mRNA in white blood cells after CDKI(7): MCL1; type: in vivo
Protocol: as §1, §2
The MCL1 gene encodes a pro-survival factor that is often amplified in cancer and we have previously shown that its mRNA is short-lived and sensitive to CDK9 inhibition (see FIG. 2). The mRNA levels were determined by TaqMan® using the relative quantification method. The calibrator samples are dog #101 at 0 hour timepoint for the 0.5 mg/kg dose of CDKI(7), dog #104 at 0 hour timepoint for the 1 mg/kg dose and dog #107 at 0 hour timepoint for the 2 mg/kg dose. The logarithm (base 10) of the RQ values is plotted with the error bars representing the 95% confidence interval.

[4] = tested on: MEPCE; assay: Dog toxicology study, TaqMan mRNA in white blood cells after CDKI(7): MEPCE; type: in vivo
Protocol: as §1, §2
The mRNA levels were determined by TaqMan® using the relative quantification method. The calibrator samples are dog #101 at 0 hour timepoint for the 0.5 mg/kg dose of CDKI(7), dog #104 at 0 hour timepoint for the 1 mg/kg dose and dog #107 at 0 hour timepoint for the CDKI(7) 2 mg/kg dose. The logarithm (base 10) of the RQ values is plotted with the error bars representing the 95% confidence interval. […] The amplitude and the duration of the down regulation are dose-dependent; at 0.5 mg/kg CDKI(7) the maximum down regulation is 3.2-fold at 3 hours, at 1 mg/kg CDKI(7) it is 5.2-fold at 7 hours and at 2 mg/kg it is 14-fold at 7 hours.

[5] = 2 mg/kg, at 3 hours, all three dogs

Compound: O=C(Nc1cc(-c2cccc(NCC3CCOCC3)n2)c(Cl)cn1)[C@@H]1CCCNC1 [CDKI(7)]
- MYC mRNA regulation ([1]; 0.5 mg/kg): no significant down regulation
- increase of MYC mRNA ([1]; 1 mg/kg, 3 or 7 hour time points): 2 fold
- MYC mRNA regulation ([1]; 2 mg/kg, FIG. 7): consistent down regulation
- maximum down regulation of MYC mRNA [1, 5]: 3.8 fold
- dogs showing MYC down regulation ([1]; 2 mg/kg, at 7 hours): 2 out of three
- MYC mRNA levels by 24 hours ([1]; all doses, 24 hours): trended back to pre-treatment levels
- MEPCE protein expression at the 16 hour time point ([2]; NCI-H929, Western blot, 16 hour): very little to undetectable levels of protein expression
- MEPCE protein expression over time ([2]; NCI-H929 multiple myeloma line, Western blot, versus DMSO): reduced over time
- MCL1 mRNA regulation ([3]; 0.5 mg/kg): no significant down regulation
- increase of MCL1 mRNA ([3]; 1 mg/kg, 7 hour time point, two out of three dogs): 2 fold
- MCL1 down regulation at 7 hours ([3]; 2 mg/kg, 7 hours): not at 7 hours
- MCL1 mRNA regulation ([3]; 2 mg/kg, FIG. 8): consistent down regulation
- maximum down regulation of MCL1 mRNA [3, 5]: 2.7 fold
- maximum down regulation of MEPCE mRNA ([4]; 0.5 mg/kg, at 3 hours): 3.2 fold
- maximum down regulation of MEPCE mRNA ([4]; 1 mg/kg, at 7 hours): 5.2 fold
- MEPCE mRNA levels at 24 hours ([4]; 2 mg/kg, one of the dogs (#109)): some degree of down regulation
- maximum down regulation of MEPCE mRNA ([4]; 2 mg/kg, at 7 hours): 14 fold
- MEPCE mRNA levels at 24 hours ([4]; 0.5 and 1 mg/kg): back to pre-treatment levels
- MEPCE mRNA regulation ([4]; all three doses (0.5, 1, 2 mg/kg), FIG. 6): clear down regulation
